Results on 33 compounds are retold here after patent US20250186391A1, “ORAL COMPLEMENT FACTOR D INHIBITORS” (BioCryst Pharmaceuticals, Inc., priority 2019, published 2025).

Factor D, sequence (P00746 26-253): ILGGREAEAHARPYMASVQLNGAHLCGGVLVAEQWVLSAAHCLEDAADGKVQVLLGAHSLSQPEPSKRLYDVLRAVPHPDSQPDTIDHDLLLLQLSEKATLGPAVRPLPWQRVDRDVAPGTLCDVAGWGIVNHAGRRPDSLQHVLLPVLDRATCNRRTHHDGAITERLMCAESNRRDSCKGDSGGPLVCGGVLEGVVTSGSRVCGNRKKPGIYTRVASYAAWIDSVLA

The assay has as its target Factor D (Homo sapiens (Human), UniProt P00746). The assay can be described thus: Factor D esterolytic assay. The format is biochemical. The conditions noted are these: Z-Lys-SBzl substrate, 100 mM HEPES, 500 mM NaCl, pH 7.5, 10% DMSO; tested a minimum of three times; read-out: Measured Ki (IC50) Value for Compounds: IC50. The gist of the method:
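Chromogenic thioesterase read-out: Z-Lys-SBzl (1.29 mM) hydrolysis by human Factor D, thiol detected with DTNB at 405 nm (690 nm background subtracted) for 600 s. Run in 100 mM HEPES, 500 mM NaCl, pH 7.5, 10% DMSO, substrate added immediately or after room-temperature preincubation. IC50 from percent inhibition versus enzyme alone, n≥3.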
For `NCc1cccc(-c2ccc3occ(COc4ccccc4CCC(=O)O)c3c2)c1` [Compound 2d, 3-(2-((5-(3-(aminomethyl)phenyl)benzofuran-3-yl)methoxy)phenyl)propanoic acid], the IC50 fell in the range of 1 to 10 µM.
Take `CC(C)n1nc(COc2ccccc2CC(=O)O)c2cc(-c3cccc([C@@H](C)N)c3)ccc21` [Compound 323b, (R)-2-(2-((5-(3-(1-aminoethyl)phenyl)-1-isopropyl-1H-indazol-3-yl)methoxy)phenyl)acetic acid]: the IC50 was < 1 µM.
On to `NCc1cccc(-c2cc(CN3CCC(F)(F)CC3)c3occ(COc4ccccc4CC(=O)O)c3c2)c1` [Compound 89e, 2-(2-((5-(3-(aminomethyl)phenyl)-7-((4,4-difluoropiperidin-1-yl)methyl)benzofuran-3-yl)methoxy)phenyl)acetic acid], for which the IC50 was < 1 µM.
Regarding `COCCc1oc2ccc(-c3cccc(CN)c3)cc2c1COc1cc(OC)ccc1CC(=O)O` [Compound 238c, 2-(2-((5-(3-(aminomethyl)phenyl)-2-(2-methoxyethyl)benzofuran-3-yl)methoxy)-4-methoxyphenyl)acetic acid], the IC50 was < 1 µM.
As for `C[C@@H](N)c1cccc(-c2cc(CC3CCOCC3)c3occ(COc4ccccc4CC(=O)O)c3c2)c1F` [Compound 164e, (R)-2-(2-((5-(3-(1-aminoethyl)-2-fluorophenyl)-7-((tetrahydro-2H-pyran-4-yl)methyl)benzofuran-3-yl)methoxy)phenyl)acetic acid], the IC50 is < 1 µM.
`NCc1cccc(-c2ccc3oc(C(O)C(F)(F)F)c(COc4ccccc4CC(=O)O)c3c2)c1` (stereo not drawn) [Compound 140c, 2-(2-((5-(3-(aminomethyl)phenyl)-2-(2,2,2-trifluoro-1-hydroxyethyl)benzofuran-3-yl)methoxy)phenyl)acetic acid]: the IC50 is < 1 µM.
Turning to `CC(Oc1ccccc1CC(=O)O)c1coc2ccc(-c3cccc(CN)c3)cc12` (stereo not drawn) [Compound 119d, 2-(2-(1-(5-(3-(aminomethyl)phenyl)benzofuran-3-yl)ethoxy)phenyl)acetic acid], the IC50 is < 1 µM.
As for `NCc1cccc(-c2cc(COc3ccccc3CC(=O)O)cc3cc(COc4ccccc4CC(=O)O)oc23)c1F` [Compound 13b, 2,2′-((((7-(3-(aminomethyl)-2-fluorophenyl)benzofuran-2,5-diyl)bis(methylene))bis(oxy))bis(2,1-phenylene))diacetic acid], the half-maximal inhibitory concentration (IC50) was < 1 µM.
For `COc1ccc(CC(=O)O)c(OCc2nn(C)c3ccc(-c4ccnc(CN)c4F)cc23)c1` [Compound 316c, 2-(2-((5-(2-(aminomethyl)-3-fluoropyridin-4-yl)-1-methyl-1H-indazol-3-yl)methoxy)-4-methoxyphenyl)acetic acid], the IC50 was < 1 µM.
With `NCc1cccc(-c2ccc3nnc(COc4ccccc4CC(=O)O)n3c2)c1` [Compound 212d, 2-(2-((6-(3-(aminomethyl)phenyl)-[1,2,4]triazolo[4,3-a]pyridin-3-yl)methoxy)phenyl)acetic acid] the figure was < 1 µM; with `CC(C)n1nc(COc2ccccc2CC(=O)O)c2cc(-c3cc(CN)cc(C4CCN(C)CC4)c3)ccc21` [Compound 333f, 2-(2-((5-(3-(aminomethyl)-5-(1-methylpiperidin-4-yl)phenyl)-1-isopropyl-1H-indazol-3-yl)methoxy)phenyl)acetic acid], > 10 µM.
On to `NCc1cccc(-c2cc(OCCC3CCOCC3)c3occ(COc4ccccc4CC(=O)O)c3c2)c1` [Compound 249f, 2-(2-((5-(3-(aminomethyl)phenyl)-7-(2-(tetrahydro-2H-pyran-4-yl)ethoxy)benzofuran-3-yl)methoxy)phenyl)acetic acid], for which the IC50 is < 1 µM.
As for `NCc1cccc(-c2cc(CN3CCOCC3)c3occ(COc4ccccc4CC(=O)O)c3c2)c1` [Compound 79h, 2-(2-((5-(3-(aminomethyl)phenyl)-7-(morpholinomethyl)benzofuran-3-yl)methoxy)phenyl)acetic acid], the IC50 was < 1 µM.
As to `Cn1cc(-c2cc(-c3cccc(CN)c3)cc3c(COc4ccccc4CC(=O)O)coc23)cn1` [Compound 72h, 2-(2-((5-(3-(aminomethyl)phenyl)-7-(1-methyl-1H-pyrazol-4-yl)benzofuran-3-yl)methoxy)phenyl)acetic acid], the 50% inhibitory concentration (IC50) was < 1 µM.
Regarding `CC(C)Nc1cc(-c2cccc(CN)c2)cc2c(COc3ccccc3CC(=O)O)coc12` [Compound 148d, 2-(2-((5-(3-(aminomethyl)phenyl)-7-(isopropylamino)benzofuran-3-yl)methoxy)phenyl)acetic acid], the IC50 was < 1 µM.
Turning to `CC(C)n1nc(COc2ccccc2CC(=O)O)c2cc(-c3cc(CN)cc(OCc4cccnc4)c3)ccc21` [Compound 243h, 2-(2-((5-(3-(aminomethyl)-5-(pyridin-3-ylmethoxy)phenyl)-1-isopropyl-1H-indazol-3-yl)methoxy)phenyl)acetic acid], the IC50 is > 10 µM.
With `COC(=O)c1cc(-c2cccc(CN)c2)c2oc(COc3ccccc3CC(=O)O)cc2c1` [Compound 23c, 2-(2-((7-(3-(aminomethyl)phenyl)-5-(methoxycarbonyl)benzofuran-2-yl)methoxy)phenyl)acetic acid], the IC50 was < 1 µM.
As to `Cc1ccc(CC(=O)O)c(OCc2c3cc(-c4cccc(CN)c4)ccc3nn2C(C)C)c1` [Compound 256c, 2-(2-((5-(3-(aminomethyl)phenyl)-2-isopropyl-2H-indazol-3-yl)methoxy)-4-methylphenyl)acetic acid], the IC50 was < 1 µM.
For `CC(C)n1nc(COc2ccccc2CC(=O)O)c2cc(-c3cccc([C@H](C)N)c3)ccc21` [Compound 320b, (S)-2-(2-((5-(3-(1-aminoethyl)phenyl)-1-isopropyl-1H-indazol-3-yl)methoxy)phenyl)acetic acid], the IC50 was < 1 µM.
In the case of `CC(C)n1nc(COc2ccccc2CC(=O)O)c2cc(-c3ccc(N)cc3)ccc21` [Compound 322c, 2-(2-((5-(4-aminophenyl)-1-isopropyl-1H-indazol-3-yl)methoxy)phenyl)acetic acid], the IC50 is > 10 µM.
Regarding `Cc1cc2occ(COc3ccccc3CC(=O)O)c2cc1-c1cccc(CN)c1` [Compound 70f, 2-(2-((5-(3-(aminomethyl)phenyl)-6-methylbenzofuran-3-yl)methoxy)phenyl)acetic acid], the IC50 is 1 to 10 µM.
Turning to `COc1ccc(CC(=O)O)c(OCc2coc3c(NCC(C)C)cc(-c4cccc(CN)c4)cc23)c1` [Compound 279c, 2-(2-((5-(3-(aminomethyl)phenyl)-7-(isobutylamino)benzofuran-3-yl)methoxy)-4-methoxyphenyl)acetic acid], the IC50 was < 1 µM.
`NCc1cccc(-c2cc(COc3ccccc3)c3occ(COc4ccccc4CC(=O)O)c3c2)c1` [Compound 92e, 2-(2-((5-(3-(aminomethyl)phenyl)-7-(phenoxymethyl)benzofuran-3-yl)methoxy)phenyl)acetic acid]: the IC50 was < 1 µM.
As to `COc1cc2occ(COc3ccccc3CC(=O)O)c2cc1-c1cccc(CN)c1` [Compound 69f, 2-(2-((5-(3-(aminomethyl)phenyl)-6-methoxybenzofuran-3-yl)methoxy)phenyl)acetic acid], the IC50 was < 1 µM.
Take `NCc1cccc(-c2cc([N+](=O)[O-])c3oc(C(=O)O)c(COc4ccccc4CC(=O)O)c3c2)c1` [Compound 59g, 5-(3-(aminomethyl)phenyl)-3-((2-(carboxymethyl)phenoxy)methyl)-7-nitrobenzofuran-2-carboxylic acid]: the IC50 is < 1 µM.
Take `COc1ccc(CC(=O)O)c(OCc2c(C(O)C(F)(F)F)oc3ccc(-c4cccc(CN)c4)cc23)c1` (stereo not drawn) [Compound 216c, 2-(2-((5-(3-(aminomethyl)phenyl)-2-(2,2,2-trifluoro-1-hydroxyethyl)benzofuran-3-yl)methoxy)-4-methoxyphenyl)acetic acid]: the IC50 is < 1 µM.
As for `NCc1cccc(-c2ccc3occ(COc4cc(C(N)=O)ccc4CC(=O)O)c3c2)c1` [Compound 63c, 2-(2-((5-(3-(aminomethyl)phenyl)benzofuran-3-yl)methoxy)-4-carbamoylphenyl)acetic acid], the IC50 is < 1 µM.
As for `NCc1cccc(-c2cc3cccc(COc4ccccc4CC(=O)O)c3o2)c1` [Compound 98g, 2-(2-((2-(3-(aminomethyl)phenyl)benzofuran-7-yl)methoxy)phenyl)acetic acid], the IC50 was < 1 µM.
As to `NCc1cccc(-c2cc(NCC3CCCO3)c3occ(COc4ccccc4CC(=O)O)c3c2)c1` (stereo not drawn) [Compound 149d, 2-(2-((5-(3-(aminomethyl)phenyl)-7-(((tetrahydrofuran-2-yl)methyl)amino)benzofuran-3-yl)methoxy)phenyl)acetic acid], the IC50 is < 1 µM.
In the case of `Cc1ccc(CC(=O)O)c(OCc2coc3c(OCC4CC4)cc(-c4cccc(CN)c4)cc23)c1` [Compound 161c, 2-(2-((5-(3-(aminomethyl)phenyl)-7-(cyclopropylmethoxy)benzofuran-3-yl)methoxy)-4-methylphenyl)acetic acid], the IC50 was < 1 µM.
In the case of `COc1ccc(CC(=O)O)c(OCc2nn(C)c3ccc(-c4cccc(CN)c4F)cc23)c1` [Compound 309b, 2-(2-((5-(3-(aminomethyl)-2-fluorophenyl)-1-methyl-1H-indazol-3-yl)methoxy)-4-methoxyphenyl)acetic acid] it was < 1 µM; in that of `CC(C)n1nc(COc2cccc(CC(=O)O)c2)c2cc(-c3cccc(CN)c3)ccc21` [Compound 304c, 2-(3-((5-(3-(aminomethyl)phenyl)-1-isopropyl-1H-indazol-3-yl)methoxy)phenyl)acetic acid], > 10 µM.
For the compound `CCOC(=O)Nc1cc(-c2cccc(CN)c2)cc2c(COc3ccccc3CC(=O)O)c(C(=O)O)oc12` [Compound 102c, 5-(3-(aminomethyl)phenyl)-3-((2-(carboxymethyl)phenoxy)methyl)-7-((ethoxycarbonyl)amino)benzofuran-2-carboxylic acid], the IC50 was < 1 µM.
